“Also recorded” adds a separate entry of the source.
Tests used:
[1] = system: MM cells; assay: Time course experiments: mitotic arrest and apoptosis in MM cells; type: cell-based, human
Experimental: (§1) The effect of Compound 1 was tested in human MM cell lines (HMCLs) using cytotoxicity, colony formation, co-culture, qPCR, Western Blot, flow cytometry, ELISA, and lentiviral transduction experiments. The effect of Compound 1 was assessed in vivo in the 5TGM1 murine model of MM.

[2] = system: BMI-1; assay: BMI-1 protein expression in HMCLs; type: cell-based, human; conditions: within 24 hrs of treatment
Experimental: as §1

[3] = system: MYC, AKT, ERK, GSK3b, FOXM1; assay: Central MM signalling cascades and key MM gene protein expression; type: cell-based, human
Experimental: as §1

[4] = system: MM cells; assay: Drug combination studies in MM cell lines; type: cell-based, human
Experimental: as §1

[5] = system: parental and PI-resistant HMCLs; assay: Cytotoxicity in human MM cell lines (HMCLs); type: cell-based; conditions: parental and PI-resistant HMCLs (n=16), read-out: median IC50
Experimental: as §1

[6] = system: 5TGM1 murine model of MM; assay: 5TGM1 murine model of MM, bone marrow infiltration; type: in vivo; conditions: 5TGM1 model
Experimental: as §1

[7] = system: microtubule polymerization; assay: Mechanistic studies of microtubule polymerization

## Cc1nc2ccc(F)cc2n1-c1nc(N)c(F)c(Nc2ccc(C(F)(F)F)cc2)n1 [Compound 1, 5-fluoro-2-(6-fluoro-2-methyl-1H-benzo[d]imidazol-1-yl)-N^4-[4-(trifluoromethyl)phenyl]pyrimidine-4,6-diamine]
[1]; 6-24 h post treatment, elevated Cyclin B1, AURKA and BIRC5, downregulation of MCL1
  mitotic arrest: potent mitotic arrest
[1]; BMI-1 overexpression
  rescue of MM cells with BMI-1 overexpression: did not rescue
[1]; after prolonged mitosis, Annexin V positive cells, cleaved caspases 8 and 9, cleaved PARP, loss of MCL1, mitochondrial membrane depolarization
  apoptosis: induction of apoptosis
[2]
  BMI-1 protein expression: downregulated BMI-1 protein expression
[3]
  ERK and GSK3b activity: unaffected
  MYC and AKT activity: significant reduction
  MYC and FOXM1 protein expression: Downregulation
[4]; IMiDs, Dex, PIs, MEL, BH3 mimetics targeting BCL2, BCLxL, MCL1, in individual cell lines
  combination effect with established drugs and BH3 mimetics: synergism
[4]; targeting EZH2, CBP/EP300, BRD4, HDACs
  combination effect with epigenetic modulators: Consistent synergism
[5]
  IC50: 57.2 nM
[6]; 30 mg/kg/biweekly
  MM cells after treatment: complete eradication of MM cells
[6]; various doses versus vehicle (FIG. 1, *P<0.0001)
  BM infiltration: dose response reduction; also recorded: reproducible dose dependent reduction
[7]
  microtubule polymerization: inhibits microtubule polymerization

From patent publication US20220143016A1, “METHOD FOR TREATING A MULTIPLE MYELOMA” (PTC THERAPEUTICS, INC., priority 2019, published 2022)
